Series [1] is described as follows: Cytotoxicity against African green monkey Vero cells assessed as cell viability incubated for 48 hrs by MTT assay. Type of series: toxicity, cell-based. The note with it: chlorocebus sabaeus.
In series [2] the test system is Enterococcus faecium. The series can be described thus: Anti-bacterial activity against drug-resistant Enterococcus faecium NCTC 7171 assessed as invisible pellets in media measured after overnight incubation. Type of series: functional.
The nature of series [3]: Metabolic stability in mouse liver microsomes assessed as half life by LC-MS/MS analysis. Type of series: ADME, Microsome.
Series [4] is described as follows: AUC (0 to 5 hrs) in CD-1 mouse at 25 mg/kg, po by LC-MS/MS analysis. The format is ADME, organism-based. The note with it: in vivo; for AUC(0-t): CD-1, mouse.
A short description of series [5]: Kinetic solubility of the compound in aqueous buffer at pH 7.4 measured after 4 hrs by LC-MS/MS analysis. Type of series: physicochemical. Particulars: read-out: Kinetic_solubility.
The next series has as its system Acinetobacter baumannii. The series can be described thus: Anti-bacterial activity against Acinetobacter baumannii ATCC 19606 assessed as invisible pellets in media measured after overnight incubation. Type of series: functional.
Another series concerns Pseudomonas aeruginosa. The series can be described thus: Anti-bacterial activity against Pseudomonas aeruginosa HER 1018 assessed as invisible pellets in media measured after overnight incubation. Type of series: functional.
A further series has as its system Staphylococcus aureus. Nature of the series: Anti-bacterial activity against Staphylococcus aureus ATCC 43300 assessed as invisible pellets in media measured after overnight incubation. The format is functional.
For another series, the system named is Klebsiella pneumoniae. The series can be described thus: Anti-bacterial activity against Klebsiella pneumonia BAA 2146 assessed as invisible pellets in media measured after overnight incubation. Type of series: functional.
Series [6] can be described thus: Plasma stability in human plasma assessed as remaining at 5 uM measured after 5 hrs by LC-MS/MS analysis. The format is ADME, cell-free.
In series [7] the test system is Enterococcus faecium. Nature of the series: Release of NO in drug-resistant Enterococcus faecium NCTC 7171 assessed as NO generation at 100 uM measured upto 2 hrs by Griess assay. The format is functional, organism-based.
For the next series, the target named is Cytochrome P450 2D6 (Homo sapiens, UniProt P10635). Nature of the series: Inhibition of CYP2D6 in human liver microsomes using dextromethorphan as substrate. Type of series: ADME, Microsome.
Sequence of Cytochrome P450 2D6 (P10635 whole entry): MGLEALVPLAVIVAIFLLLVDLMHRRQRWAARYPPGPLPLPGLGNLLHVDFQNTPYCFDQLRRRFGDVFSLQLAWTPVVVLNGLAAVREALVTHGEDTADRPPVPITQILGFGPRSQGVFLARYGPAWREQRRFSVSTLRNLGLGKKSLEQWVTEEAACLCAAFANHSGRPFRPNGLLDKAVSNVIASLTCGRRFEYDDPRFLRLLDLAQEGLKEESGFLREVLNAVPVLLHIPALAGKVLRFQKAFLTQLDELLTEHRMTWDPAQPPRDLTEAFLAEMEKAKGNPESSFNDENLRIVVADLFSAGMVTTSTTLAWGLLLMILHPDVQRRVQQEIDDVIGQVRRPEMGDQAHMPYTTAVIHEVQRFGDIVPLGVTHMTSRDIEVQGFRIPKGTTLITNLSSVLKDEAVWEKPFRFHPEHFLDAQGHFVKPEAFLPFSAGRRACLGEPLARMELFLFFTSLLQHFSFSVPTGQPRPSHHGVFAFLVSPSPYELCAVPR
In another series the target is Cytochrome P450 3A4 (Homo sapiens, UniProt P08684). Nature of the series: Inhibition of CYP3A4 in human liver microsomes using midazolam as substrate. Type of series: ADME, Microsome.
Sequence of Cytochrome P450 3A4 (P08684 whole entry): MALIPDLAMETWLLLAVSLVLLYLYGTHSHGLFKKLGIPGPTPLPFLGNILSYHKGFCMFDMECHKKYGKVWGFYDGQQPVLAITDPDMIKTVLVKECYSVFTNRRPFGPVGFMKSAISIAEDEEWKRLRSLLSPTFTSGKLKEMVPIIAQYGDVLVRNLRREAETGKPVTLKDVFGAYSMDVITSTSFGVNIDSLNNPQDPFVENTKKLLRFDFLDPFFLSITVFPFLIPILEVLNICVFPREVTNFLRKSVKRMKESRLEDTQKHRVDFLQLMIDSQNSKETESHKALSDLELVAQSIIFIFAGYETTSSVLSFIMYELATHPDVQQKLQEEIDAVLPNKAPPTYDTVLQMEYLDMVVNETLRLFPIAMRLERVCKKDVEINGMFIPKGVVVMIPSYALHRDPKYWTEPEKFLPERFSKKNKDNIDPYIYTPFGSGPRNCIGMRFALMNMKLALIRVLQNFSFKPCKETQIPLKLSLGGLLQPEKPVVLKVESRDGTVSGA
A short description of series [8]: Plasma protein binding in mouse at 5 uM measured after 5 hrs by LC-MS/MS analysis. The format is ADME, cell-free. The note with it: read-out: PPB.
The subject of series [9] is Enterococcus faecium. The series can be described thus: In vivo anti-bacterial activity against vancomycin-resistant Enterococcus faecium EN 2966 infected immunocompetent mouse model of acute peritonitis-sepsis assessed as protection at 150 mg/kg, po measured upto 3 days. The note with it: time <= 3.0 day. The format is functional, organism-based.
A further series has as its target T1, Cytochrome P450 1A2 (Homo sapiens, UniProt P05177).
T1 sequence (P05177 whole entry): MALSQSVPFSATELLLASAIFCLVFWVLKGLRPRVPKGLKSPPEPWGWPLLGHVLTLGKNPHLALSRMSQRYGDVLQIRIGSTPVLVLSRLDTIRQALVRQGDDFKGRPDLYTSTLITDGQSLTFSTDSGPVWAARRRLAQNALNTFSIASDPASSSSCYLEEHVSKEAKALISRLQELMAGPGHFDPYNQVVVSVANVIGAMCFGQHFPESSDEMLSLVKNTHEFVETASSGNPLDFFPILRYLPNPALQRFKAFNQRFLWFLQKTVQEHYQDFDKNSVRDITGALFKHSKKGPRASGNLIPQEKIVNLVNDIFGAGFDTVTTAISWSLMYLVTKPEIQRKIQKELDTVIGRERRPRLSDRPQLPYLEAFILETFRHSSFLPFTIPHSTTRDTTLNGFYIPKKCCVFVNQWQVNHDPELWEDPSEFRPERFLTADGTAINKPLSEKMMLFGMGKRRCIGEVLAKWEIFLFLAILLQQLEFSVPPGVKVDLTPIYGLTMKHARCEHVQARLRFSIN
Nature of the series: Inhibition of CYP1A2 in human liver microsomes using phenacetin as substrate. Type of series: ADME, Microsome.

Series [10] in a line: Metabolic stability in human liver microsomes assessed as half life by LC-MS/MS analysis. The format is ADME, Microsome.
For series [11], the system named is Enterococcus faecium. The series can be described thus: Anti-bacterial activity against vancomycin-resistant Enterococcus faecium EN 2966 assessed as invisible pellets in media measured after overnight incubation. The format is functional.
The nature of series [12]: Plasma stability in mouse plasma assessed as remaining at 5 uM measured after 5 hrs by LC-MS/MS analysis. The format is ADME, cell-free.
Series [13] can be described thus: Plasma protein binding in human at 5 uM measured after 5 hrs by LC-MS/MS analysis. Type of series: ADME, cell-free. Particulars: read-out: PPB (converted).
A further series has as its target Cytochrome P450 2C9 (Homo sapiens, UniProt P11712). The series can be described thus: Inhibition of CYP2C9 in human liver microsomes using diclofenac as substrate. Type of series: ADME, Microsome.
The target in another series is Cytochrome P450 2C19 (Homo sapiens, UniProt P33261). Nature of the series: Inhibition of CYP2C19 in human liver microsomes using omeprazole as substrate. Type of series: ADME, Microsome.
Sequence of Cytochrome P450 2C19 (P33261 whole entry): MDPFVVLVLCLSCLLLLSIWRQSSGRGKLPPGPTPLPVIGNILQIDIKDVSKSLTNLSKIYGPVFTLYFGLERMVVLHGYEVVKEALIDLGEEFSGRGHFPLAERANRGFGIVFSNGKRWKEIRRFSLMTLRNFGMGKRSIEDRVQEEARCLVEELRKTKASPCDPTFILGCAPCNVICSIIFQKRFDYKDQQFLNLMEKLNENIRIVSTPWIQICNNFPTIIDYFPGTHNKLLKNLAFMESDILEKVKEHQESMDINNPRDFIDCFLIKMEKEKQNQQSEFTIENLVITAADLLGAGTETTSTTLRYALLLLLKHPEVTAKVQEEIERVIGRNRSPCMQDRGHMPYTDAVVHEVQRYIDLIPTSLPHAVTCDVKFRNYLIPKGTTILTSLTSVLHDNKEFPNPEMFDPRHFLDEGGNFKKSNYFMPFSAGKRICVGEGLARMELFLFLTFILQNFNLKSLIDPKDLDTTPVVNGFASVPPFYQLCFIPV
The nature of series [14]: Toxicity in CD-1 mouse assessed as tolerability at 300 mg/kg, po. The format is organism-based. The note with it: in vivo.
A short description of series [15]: Oral bioavailability in CD-1 mouse at 25 mg/kg by LC-MS/MS analysis. Particulars: in vivo. Type of series: ADME, organism-based.
The test system of series [16] is Enterococcus faecium. The series can be described thus: Bactericidal activity against drug-resistant Enterococcus faecium NCTC 7171 assessed as invisible pellets in media measured after 2 days incubation. Type of series: functional. Particulars: NCTC 7171, 48 h, time 2 day.

In brackets after ≈: the same amount, converted by molar mass. Activity calls are given as the source filed them. The calls are words filed in the database; no cut-off is given here.

Sequence of Cytochrome P450 2C9 (P11712 whole entry): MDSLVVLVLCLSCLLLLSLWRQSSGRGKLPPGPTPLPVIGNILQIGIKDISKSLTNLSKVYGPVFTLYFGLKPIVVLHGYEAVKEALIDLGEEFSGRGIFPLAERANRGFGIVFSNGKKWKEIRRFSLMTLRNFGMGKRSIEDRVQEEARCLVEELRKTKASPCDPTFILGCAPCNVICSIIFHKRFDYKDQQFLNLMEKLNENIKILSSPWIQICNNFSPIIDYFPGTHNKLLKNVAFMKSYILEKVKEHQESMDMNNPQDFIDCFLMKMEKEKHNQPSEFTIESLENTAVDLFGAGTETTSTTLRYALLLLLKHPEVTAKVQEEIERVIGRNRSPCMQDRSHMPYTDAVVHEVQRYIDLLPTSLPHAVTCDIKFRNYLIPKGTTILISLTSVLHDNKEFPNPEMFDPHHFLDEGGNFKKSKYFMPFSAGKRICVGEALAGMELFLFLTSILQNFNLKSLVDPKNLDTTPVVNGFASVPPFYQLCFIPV

For `O=C(NNC(=O)c1cc2cccc(Cl)c2s1)c1ccc([N+](=O)[O-])o1`, the CC50 in [1] came out at 68 µM. Further, in the series on Enterococcus faecium [2], the MIC was determined as 4.2 µM (≈ 1.54 µg/mL).
For `O=C(NNC(=O)c1cc2c(Cl)cccc2s1)c1ccc([N+](=O)[O-])o1`, in that order: 136 µM and 34 µM (≈ 12.4 µg/mL).
For `O=C(NNC(=O)c1cc2c(Cl)cc(Cl)cc2s1)c1ccc([N+](=O)[O-])o1`, in that order: over 124 µM and 62 µM (≈ 24.8 µg/mL).
Take `O=C(NNC(=O)c1cc2cc(Cl)cc(Cl)c2s1)c1ccc([N+](=O)[O-])o1`: the CC50 in series [1] turned out to be 124 µM. The MIC in the series on Enterococcus faecium [2] was found to be 0.75 µM (≈ 0.3 µg/mL). Also, in [3], the t1/2 was found to be 13.3 min. This molecule also had an AUC(0-t) in series [4] of 111000 ng·h/mL. In addition, the solubility kinetic at 4 h in [5] came to 0.55 µM (≈ 0.22 µg/mL).
For the molecule `O=C(NNC(=O)c1cc2ccccc2s1)c1ccc([N+](=O)[O-])o1`, the MIC is over 150 µM in the series on Acinetobacter baumannii; over 174 µM in the series with Enterococcus faecium [2]; over 150 µM in the series with Pseudomonas aeruginosa; over 150 µM in the series on Staphylococcus aureus; over 150 µM in the series with Klebsiella pneumoniae. Further, the t1/2 in series [3] is on record as 3.3 min. The molecule further registered an AUC(0-t) in [4] of 1280 ng·h/mL. The solubility kinetic at 4 h in [5] was 103 µM (≈ 34.1 µg/mL).
Regarding `O=C(NNC(=O)c1sc2cc(F)ccc2c1Cl)c1ccc([N+](=O)[O-])o1`, the CC50 in [1] was over 130 µM. Further, in the series with Enterococcus faecium [2], the minimum inhibitory concentration (MIC) was over 130 µM.
Regarding `CCCCCCCCCC(=O)N[C@@H](Cc1c[nH]c2ccccc12)C(=O)N[C@H](CC(N)=O)C(=O)N[C@@H](CC(=O)O)C(=O)N[C@@H]1C(=O)NCC(=O)N[C@@H](CCCN)C(=O)N[C@@H](CC(=O)O)C(=O)N[C@H](C)C(=O)N[C@@H](CC(=O)O)C(=O)NCC(=O)N[C@H](CO)C(=O)N[C@@H]([C@H](C)CC(=O)O)C(=O)N[C@@H](CC(=O)c2ccccc2N)C(=O)O[C@@H]1C`, in the series on Enterococcus faecium [2], the MIC was 10 µM (≈ 16.2 µg/mL).
On to `O=C(NCCNC(=O)c1cc2ccccc2s1)c1ccc([N+](=O)[O-])o1`, for which the CC50 in series [1] stood at 139 µM. The MIC with Enterococcus faecium [2] was over 140 µM.
Regarding `O=C(NNC(=O)c1sc2cc(Cl)ccc2c1Cl)c1ccc([N+](=O)[O-])o1`, the results for the Stability in series [6] and in [12] were 76.6% and 89.2%, respectively. Moreover, the outcome in the series on Enterococcus faecium [7] was inactive. Further, the 50% inhibitory concentration (IC50) against Cytochrome P450 2D6, on Cytochrome P450 3A4, on Cytochrome P450 1A2, against Cytochrome P450 2C9 and at Cytochrome P450 2C19 was over 50 µM throughout. Besides, the fraction unbound at 5 h, 5 µM in series [8] was 0.0001; in series [13], 0.007. The result with Enterococcus faecium [9] was Active. Further, the t1/2 stood at 85.6 min in series [10] and 16.6 min in [3]. In addition, in series [1], the CC50 is over 120 µM. Besides, the MIC in the series on Enterococcus faecium [11] and in the series on Enterococcus faecium [2] was 1.9 µM (≈ 0.76 µg/mL) each time. The AUC in series [4] (mouse, po, 25 mg/kg) stood at 75175 ng·h/mL. The Activity result in series [14] is on record as “Non-Toxic”. In addition, the solubility kinetic at 4 h in [5] came to 0.35 µM (≈ 0.14 µg/mL). For the same molecule, the F in series [15] is 47%.
With `O=C(NNC(=O)c1sc2cc(C(F)(F)F)ccc2c1Cl)c1ccc([N+](=O)[O-])o1`, the CC50 in [1] worked out at 110 µM. Further, in the series on Enterococcus faecium [2], the minimum inhibitory concentration (MIC) amounted to 3.6 µM (≈ 1.56 µg/mL).
For `O=C(NNC(=O)c1cc2c(s1)CCCC2)c1ccc([N+](=O)[O-])o1`, in that order: 37 µM and 37 µM (≈ 12.4 µg/mL).
With `O=C(NNC(=O)c1cc2cc(Cl)ccc2s1)c1ccc([N+](=O)[O-])o1`, the CC50 in series [1] is over 137 µM. Moreover, the minimal inhibitory concentration (MIC) in the series on Enterococcus faecium [2] was over 137 µM.
As for `O=C(NNC(=O)c1cc2cc(C(F)(F)F)cc(Cl)c2s1)c1ccc([N+](=O)[O-])o1`, the MIC is over 120 µM in the series on Acinetobacter baumannii; 1.8 µM (≈ 0.781 µg/mL) with Enterococcus faecium [2]; over 120 µM in the series with Pseudomonas aeruginosa; 16 µM (≈ 6.94 µg/mL) with Staphylococcus aureus; over 120 µM in the series with Klebsiella pneumoniae. Further, in the series on Enterococcus faecium [16], the MBC was 7.7 µM (≈ 3.34 µg/mL). Moreover, the CC50 in [1] is over 110 µM. In addition, the t1/2 in [3] stood at 57.8 min. In series [4], the AUC(0-t) came to 43800 ng·h/mL. In addition, the solubility kinetic at 4 h in [5] worked out at 0.06 µM (≈ 0.026 µg/mL).
As for `O=C(NNC(=O)c1sc2ccccc2c1Cl)c1ccc([N+](=O)[O-])o1`, the CC50 in [1] was 68 µM. The minimal inhibitory concentration (MIC) with Enterococcus faecium [2] came to 17 µM (≈ 6.22 µg/mL).
For `O=C(NNC(=O)c1ccc([N+](=O)[O-])o1)c1cc2ccccc2[nH]1`, in that order: over 160 µM and over 100 µM.
Consider `O=C(NNC(=O)c1sc2ccc(Cl)cc2c1Cl)c1ccc([N+](=O)[O-])o1`, for which, in series [1], the CC50 was over 124 µM. The MIC in the series on Enterococcus faecium [2] is over 124 µM.
On to `O=C(NNC(=O)c1sc2cccc(Cl)c2c1Cl)c1ccc([N+](=O)[O-])o1`, for which, in series [1], the CC50 was over 124 µM. The MIC with Enterococcus faecium [2] was 7.8 µM (≈ 3.12 µg/mL).

The values are drawn from ChEMBL document CHEMBL5537182, “Small Molecule Benzothiophene with In Vivo Efficacy in a Mouse Model of Drug-Resistant Enterococcus faecium Infection” (J Med Chem, 2024).
